Results taken from paper PMC12693167, “Design, Synthesis and Anticancer Activity of 6-Substituted-1-(3,4,5-trimethoxyphenyl)-1H-indole Against Tubulin Polymerisation” (Molecules, 2025).

Experiments:
[1] = molecular target: T1, Porcine brain tubulin protein (Sus scrofa, UniProt P02554); test: In vitro tubulin polymerization assay; type: biochemical; conditions: 10 μM
T1 construct: Porcine brain tubulin protein was dissolved in EM buffer; from tissue; host or cells: porcine brain
Experimental: The ability of compound 3g to disrupt microtubule dynamics was assessed using an in vitro tubulin polymerization assay.
Porcine brain tubulin protein was dissolved in EM buffer containing 5% glycerol (80 mM PIPES, 2 mM GTP, 2 mM MgCl2, and 0.5 mM EGTA, pH 6.9). Compounds were diluted in EM buffer to final concentrations of 50, 25, 10, 5, and 2.5 μM and added to a pre-warmed 384-well plate, followed by pre-incubation at 37 °C. Subsequently, 14 μL of the tubulin-GTP mixture was added to each well containing the test compounds. Tubulin polymerization was monitored by measuring absorbance at 340 nm every minute for 60 min. […] Each assay was performed in triplicate.
Absorbance at 340 nm was determined every 1 min.

[2] = tested on: B16F10 melanoma tumors in BALB/c mice; test: In vivo antitumor efficacy, subcutaneous B16-F10 melanoma model; design: species or system mouse; conditions: paclitaxel 10 mg/kg i.p. once daily, 14 days, from tumor weight
Experimental: The in vivo antitumor activity of compound 3g was evaluated using a mouse melanoma tumor model in BALB/c mice. Tumors were established by subcutaneous inoculation of B16F10 cells, and treatment was initiated when tumors reached a measurable size. Mice were administered vehicle control, paclitaxel (PTX, 10 mg/kg), or compound 3g (20 and 50 mg/kg) via intraperitoneal injection once daily for 14 consecutive days.
All animal procedures were approved by the Animal Ethics Committee of the Naval Medical University (permit number: EC11-055). Male BALB/c mice (6–8 weeks old, average initial body weight approximately 18–20 g) were purchased from Shanghai SLAC Laboratory Animal Co., Ltd. The inhibitory effect of compound 3g was evaluated using a subcutaneous B16-F10 melanoma xenograft model. Log-phase B16F10 cells were suspended in PBS and subcutaneously injected into mice (200 μL containing 8 × 10^5 cells per mouse) to establish tumors. Mice were randomly divided into control and treatment groups (n = 8). Compound 3g and paclitaxel were dissolved in a vehicle consisting of DMSO:PEG:Tween-80:saline (v/v/v/v, 5:35:10:50) to the desired concentrations. Treatments (paclitaxel, 10 mg/kg; compound 3g, 20 and 50 mg/kg, doses calculated on a body-weight basis) and vehicle were administered once daily via intraperitoneal injection for 14 consecutive days. Body weights were monitored throughout the study to assess acute toxicity. Tumor volumes were measured using calipers and calculated with the formula: a × b^2 × 0.5, where a and b represent the larger and smaller tumor diameters, respectively. On day 14, mice were sacrificed and tumors were excised and weighed. […] Major organs (liver and kidneys) were collected, fixed in 4% paraformaldehyde, processed into paraffin sections, stained with hematoxylin and eosin (H&E), and examined microscopically.
Murine melanoma B16-F10 xenograft tumors were established in mice, which were then administered vehicle, PTX (10 mg/kg per day), compound 3g (20 mg/kg per day), and compound 3g (50 mg/kg per day) for 14 days. […]

T1 sequence (P02554 whole entry): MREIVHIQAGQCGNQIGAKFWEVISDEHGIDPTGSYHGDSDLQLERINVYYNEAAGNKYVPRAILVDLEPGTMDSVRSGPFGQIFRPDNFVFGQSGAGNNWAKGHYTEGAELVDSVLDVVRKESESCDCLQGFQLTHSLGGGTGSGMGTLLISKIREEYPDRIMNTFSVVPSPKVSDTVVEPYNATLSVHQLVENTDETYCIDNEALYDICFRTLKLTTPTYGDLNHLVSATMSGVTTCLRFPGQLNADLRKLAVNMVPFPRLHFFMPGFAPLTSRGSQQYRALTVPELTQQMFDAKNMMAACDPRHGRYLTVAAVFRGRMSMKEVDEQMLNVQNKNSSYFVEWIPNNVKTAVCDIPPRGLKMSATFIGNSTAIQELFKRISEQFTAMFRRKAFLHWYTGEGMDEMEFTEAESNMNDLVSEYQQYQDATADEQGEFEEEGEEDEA
T1 sequence (P02550 whole entry partner): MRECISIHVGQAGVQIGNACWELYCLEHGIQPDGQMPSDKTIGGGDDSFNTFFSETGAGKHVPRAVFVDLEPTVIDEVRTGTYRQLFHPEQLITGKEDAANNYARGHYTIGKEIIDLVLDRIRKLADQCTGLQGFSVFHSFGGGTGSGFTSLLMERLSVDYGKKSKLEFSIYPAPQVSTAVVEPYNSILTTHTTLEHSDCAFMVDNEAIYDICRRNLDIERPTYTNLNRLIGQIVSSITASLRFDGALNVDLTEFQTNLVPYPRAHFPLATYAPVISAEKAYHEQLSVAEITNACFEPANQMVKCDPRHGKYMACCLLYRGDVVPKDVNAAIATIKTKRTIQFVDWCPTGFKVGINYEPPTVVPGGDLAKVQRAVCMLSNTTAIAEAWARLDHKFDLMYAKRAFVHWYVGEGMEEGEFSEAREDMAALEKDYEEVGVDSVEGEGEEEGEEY

effect on tubulin polymerization (positive controls) [1]: stabilizing
Structure (SMILES): CC(=O)O[C@H]1C(=O)[C@@]2(C)[C@H]([C@H](OC(=O)c3ccccc3)[C@]3(O)C[C@H](OC(=O)[C@H](O)[C@@H](NC(=O)c4ccccc4)c4ccccc4)C(C)=C1C3(C)C)[C@]1(OC(C)=O)CO[C@@H]1C[C@@H]2O [paclitaxel, reference compound]
tumor growth inhibition (TGI) [2]: 59.84%
